In ChEMBL document CHEMBL1158667, “Agelasines H and I, 9-methyladenine-containing diterpenoids from an Agelas sponge” (J Nat Prod, 1998):
The source made the active and inactive calls. The calls are words filed in the database; no cut-off is given here.

Key:
Type in all cases: functional, organism-based
Saccharomyces cerevisiae [1] = experiment: Antimicrobial activity against Saccharomyces cerevisiae ATCC 18824 at 200 ug/mL
Saccharomyces cerevisiae [2] = experiment: Antimicrobial activity against Saccharomyces cerevisiae ATCC 18824 at 10 ug/mL
Pseudomonas aeruginosa [3] = experiment: Antimicrobial activity against Pseudomonas aeruginosa ATCC 15442 at 200 ug/mL
Staphylococcus aureus [4] = experiment: Antimicrobial activity against Staphylococcus aureus ATCC 6538 at 200 ug/mL
Aspergillus niger [5] = experiment: Antimicrobial activity against Aspergillus niger ATCC 9642 at 200 ug/mL
Aspergillus niger [6] = experiment: Antimicrobial activity against Aspergillus niger ATCC 9642 at 1 ug/mL
Saccharomyces cerevisiae [7] = experiment: Antimicrobial activity against Saccharomyces cerevisiae ATCC 18824 at 100 ug/mL
Saccharomyces cerevisiae [8] = experiment: Antimicrobial activity against Saccharomyces cerevisiae ATCC 18824 at 1 ug/mL
Aspergillus niger [9] = experiment: Antimicrobial activity against Aspergillus niger ATCC 9642 at 10 ug/mL
Pseudomonas aeruginosa [10] = experiment: Antimicrobial activity against Pseudomonas aeruginosa ATCC 15442 at 100 ug/mL
Pseudomonas aeruginosa [11] = experiment: Antimicrobial activity against Pseudomonas aeruginosa ATCC 15442 at 10 ug/mL
Pseudomonas aeruginosa [12] = experiment: Antimicrobial activity against Pseudomonas aeruginosa ATCC 15442 at 1 ug/mL
Staphylococcus aureus [13] = experiment: Antimicrobial activity against Staphylococcus aureus ATCC 6538 at 100 ug/mL
Staphylococcus aureus [14] = experiment: Antimicrobial activity against Staphylococcus aureus ATCC 6538 at 10 ug/mL
Staphylococcus aureus [15] = experiment: Antimicrobial activity against Staphylococcus aureus ATCC 6538 at 1 ug/mL
Aspergillus niger [16] = experiment: Antimicrobial activity against Aspergillus niger ATCC 9642 at 100 ug/mL

| SMILES | Activity (Saccharomyces cerevisiae [1]) | Activity (Saccharomyces cerevisiae [2]) | Activity (Pseudomonas aeruginosa [3]) | Activity (Staphylococcus aureus [4]) | Activity (Aspergillus niger [5]) | Activity (Aspergillus niger [6]) | Activity (Saccharomyces cerevisiae [7]) | Activity (Saccharomyces cerevisiae [8]) | Activity (Aspergillus niger [9]) | Activity (Pseudomonas aeruginosa [10]) | Activity (Pseudomonas aeruginosa [11]) | Activity (Pseudomonas aeruginosa [12]) | Activity (Staphylococcus aureus [13]) | Activity (Staphylococcus aureus [14]) | Activity (Staphylococcus aureus [15]) | Activity (Aspergillus niger [16]) |
| --- | --- | --- | --- | --- | --- | --- | --- | --- | --- | --- | --- | --- | --- | --- | --- | --- |
| C/C(=C\Cn1c[n+](C)c2ncnc(N)c21)CC[C@]1(C)[C@@H](C)CC[C@@]2(C)C(COC(=O)c3ccc[nH]3)=CCC[C@@H]12 | inactive | Active | inactive | inactive | inactive |  |  |  |  |  |  |  |  |  |  |  |
| C=C1[C@H](O)CC[C@H]2[C@](C)(CC/C(C)=C/Cn3c[n+](C)c4ncnc(N)c43)[C@@H](C)CC[C@@]12C | Active |  |  |  |  |  |  |  |  |  |  |  |  |  |  |  |
| CC1=CCC[C@H]2[C@](C)(CC/C(C)=C/Cn3c[n+](C)c4ncnc(N)c43)[C@@H](C)CC[C@@]12C | inactive | inactive | inactive | inactive | inactive | inactive | inactive | inactive | inactive | inactive | inactive | inactive | inactive | inactive | inactive | inactive |
| C/C(=C\Cn1c[n+](C)c2ncnc(N)c21)CC[C@]1(C)[C@@H](C)CC[C@@]2(C)C(CO)=CCC[C@@H]12 | inactive | inactive | inactive | inactive | inactive | inactive | inactive | inactive | inactive | inactive | inactive | inactive | inactive | inactive | inactive | inactive |
| CC1=CCC[C@H](C)[C@@]1(C)CC/C(C)=C/CC/C(C)=C/Cn1c[n+](C)c2ncnc(N)c21 |  | Active |  |  |  |  |  |  |  |  |  |  |  |  |  | Active |
| CC1=CCC[C@@H]2[C@@](C)(CC/C(C)=C/Cn3c[n+](C)c4ncnc(N)c43)[C@H](C)CC[C@@]12C | inactive | Active | inactive | inactive | inactive |  |  |  |  |  |  |  |  |  |  |  |
